According to US7700584B2 (Hangzhou Minsheng Pharmaceuticals Co., Ltd., priority 2004, dated 2010):
Structures can show the parent of a compound that is named as a salt.

How the values were obtained:
[1] = test system: eight selected tumor cell lines; experiment: In vitro anti-tumor IC50, summary over the selected tumor cell lines; format: cell-based; conditions: all eight cell lines
Method: (§1) (1) Single cell suspension was seeded into 96-well plates (the cells was diluted in the PRMI-1640 minimum medium to 3×10^4 cells/ml, […] diluted cells/well). […] The experiments were performed in quadruplicate.
(§2) (2) The medium was removed. Solutions of the anti-tumor agents (50 compounds) were prepared in a freshly prepared medium at serial concentrations. […] of the solution was added into each well. Incubation was continued for 48 hours.
(§3) (3) 20 ug of 2 mg/ml MTT was added into each well, and incubated for 4 hours.
(§4) (4) The medium was removed from the well. The microplates were swiftly turned down to throw-off the medium. […] of DMSO was added into each well, and vortexed at room temperature for 10 minutes.
(§5) (5) OD value (λ=570 nm) was measured with an Enzyme-Linked Detector.
(§6) (6) The graph of cell vitality was plotted, and IC50 was calculated.

[2] = test system: Bel-7402 human hepatic carcinoma; experiment: In vitro anti-tumor IC50 (MTT), Bel-7402; format: cell-based; conditions: Table 4; hydrochloride
Method: as §1, §2, §3, §4, §5, §6

Hepatitis B virus (HBV) = format: cell-based
HepG2 cells = experiment: Cell status of HepG2 cells treated with sample (HBV screening); format: cell-based; conditions: 200 μg/ml, HepG2, four days after infection
Method: 1.5 Screening for the agents: The HepG2 cells were counted and 1.5×10^4 cells/well were seeded into a 96-well plate. After incubation overnight in an atmosphere of CO2 at 37° C., each of the experimental samples in a given concentration was added to the cells. After incubation at 37 °C for 24 hrs, the HepG2 treated with the samples were infected with vAcGFPHBVc of 100 MOI. A negative control and a positive control were also included. Four days after infection, the growth of the cells were observed, and the HBV e antigen in the supernatant was measured with the HBV e antigen diagnostic kit.

[3] = test system: mouse grafted liver cancer H22; experiment: Activity against mouse grafted liver cancer H22; format: in vivo, Kunming mice; conditions: for Tumor weight: X ± SD, n = 10; for Average weight (g)-after administration / Average weight(g)-after administration: mouse, in vivo
Procedure, shortened: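 Male Kunming mice inoculated with liver cancer H22, 10 per group; compounds (10%, 0.4, 0.2 or 0.1 ml/mouse) injected from the day after inoculation on alternate days, 6 doses. Tumours excised the day after last dose; inhibition rate from mean tumour weight versus saline controls; repeated three times.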

[4] = test system: A-549 human lung adenocarcinoma; experiment: In vitro anti-tumor IC50 (MTT), A-549; format: cell-based; conditions: Table 4; hydrochloride
Method: as §1, §2, §3, §4, §5, §6

[5] = test system: LLC mouse Lewis lung carcinoma; experiment: In vitro anti-tumor IC50 (MTT), LLC; format: cell-based; conditions: Table 4; hydrochloride
Method: as §1, §2, §3, §4, §5, §6

mouse lung cancer Lewis = experiment: Activity against mouse grafted lung cancer Lewis; format: in vivo, Kunming mice; conditions: for Inhibition rate (%) / Tumor weight: Lewis; for Tumor weight: X ± SD, n = 10
Method: The experiments were performed according to “Guideline for New Drugs (Western medicines) in Pre-clinical Stages” issued by Bureau of Drug Policy & Administration of the People's Republic of China, and the relevant methods in “Methodology of Pharmaceutical Experiments”, Xu Shuyun et al. ed. 120 male Kunming mice weighting […] were allowed to grow 3 days. No abnormality was observed. The mice were routinely inoculated in oxter with mouse sarcoma S-180, and weighted 4 hrs. after inoculation. The mice were randomly divided into 12 groups, 10 mice/group. Group 1 was given 0.3 ml of physiological saline as negative control; Group 2 was given 5-FU as positive control, 0.6 mg/mouse; Group 3 was given hydroxycamptothecine as positive control, 0.02 mg/mouse. Groups 4, 5 and 6 were injected with 10% Compound 6, 0.4 ml/mouse, 0.2 ml/mouse, and 0.1 ml/mouse, respectively. Groups 7, 8 and 9 were injected with 10% Compound 8, 0.4 ml/mouse, 0.2 ml/mouse, and 0.1 ml/mouse, respectively. Groups 10, 11, and 12 were injected with 10% Compound 20, 0.4 ml/mouse, 0.2 ml/mouse, and 0.1 ml/mouse, respectively. The tested compounds were administered on the next day after inoculation, once a day on alternate days, 6 doses totally administered. On the next day after the end dose, the mice were weighed and sacrificed. After the tumor was excised, body weight and tumor weight were recorded. The tumor inhibition rate was calculated based on the following formula: [(average tumor weight of the control groups−average tumor weight of the experimental groups)/average tumor weight of the control groups]×100%. The data was processed statistically. The above experiments were repeated three times.
The experiments were identical with the experiments for activity against mouse grafted sarcoma S-180, except the following:
(1) the tumor cell line inoculated was mouse lung cancer Lewis;
(2) Compound 6, Compound 8 and Compound 21 were not tested for their activity;
(3) the mice were divided into six groups.

[6] = test system: SMMC-7721 human hepatic carcinoma; experiment: In vitro anti-tumor IC50 (MTT), SMMC-7721; format: cell-based; conditions: Table 4; hydrochloride
Method: as §1, §2, §3, §4, §5, §6

[7] = H22, first experiment, 10 mg/kg i.v., 6 doses
[8] = H22, first experiment, 20 mg/kg i.v., 6 doses
[9] = H22, first experiment, 40 mg/kg i.v., 6 doses
[10] = H22, second experiment, 10 mg/kg
[11] = H22, second experiment, 20 mg/kg
[12] = H22, second experiment, 40 mg/kg
[13] = H22, third experiment, 10 mg/kg
[14] = H22, third experiment, 20 mg/kg
[15] = H22, third experiment, 40 mg/kg

CC(C)C1CC23OC1(O)C/C(=C\Nc1ccc(O)cc1)C2CCC3C (stereo not shown) [Compound 6, Curcumol p-hydroxy aniline hydrochloride]
inhibitory effect to all the eight selected tumor cell lines (in words) [1]: strong inhibitory effect | IC50 (ug/ml) against tumor cell lines, Bel-7402 [2]: 1.0 µg/mL | (Value of the positive control - Measured Value) Value of the positive control × 100% (Hepatitis B virus (HBV); 200 μg/ml, decrease of HBeAg relative to positive control): 93.43% | OD450 of HBeAg (Hepatitis B virus (HBV); 200 μg/ml, supernatant four days after infection, positive control 1.917, negative 0.057): 0.126 | activity against HBV (in words) (Hepatitis B virus (HBV); primary screening, HBV e antigen, HepG2, 13 samples): had the activity against HBV | Cell status (HepG2 cells): Normal | Inhibition rate (%) [3, 7]: 7.0% | Tumor weight [3, 7]: 2.8 ± 0.37 g | Inhibition rate (%) [3, 8]: 47.0% | Tumor weight [3, 8]: 1.60 ± 0.29 g | Inhibition rate (%) [3, 9]: 61.9% | Tumor weight [3, 9]: 1.15 ± 0.31 g | Inhibition rate (%) [3, 10]: 13.9% | Tumor weight [3, 10]: 2.6 ± 0.37 g | Inhibition rate (%) [3, 11]: 47.7% | Tumor weight [3, 11]: 1.58 ± 0.29 g | Inhibition rate (%) [3, 12]: 60.3% | Tumor weight [3, 12]: 1.21 ± 0.31 g | Inhibition rate (%) [3, 13]: 7.3% | Tumor weight [3, 13]: 2.8 ± 0.37 g | Inhibition rate (%) [3, 14]: 46.0% | Tumor weight [3, 14]: 1.63 ± 0.29 g | Inhibition rate (%) [3, 15]: 56.9% | Tumor weight [3, 15]: 1.30 ± 0.31 g | Average weight (g)-after administration ([3]; 10 mg/kg): 21.2 g | Average weight(g)-after administration ([3]; 10 mg/kg): 21.0 g | Average weight (g)-after administration ([3]; 20 mg/kg): 20.0 g | Average weight(g)-after administration ([3]; 20 mg/kg): 22.0 g | Average weight (g)-after administration ([3]; 40 mg/kg): 21.4 g | Average weight(g)-after administration ([3]; 40 mg/kg): 22.4 g | Average weight(g)-after administration ([3]; iv, 10 mg/kg): 22.0 g | Average weight(g)-after administration ([3]; iv, 20 mg/kg): 22.2 g | Average weight(g)-after administration ([3]; iv, 40 mg/kg): 22.1 g | inhibitory effect against mouse grafted liver cancer H22 (in words) ([3]; three different concentrations (40, 20, 10 mg/kg), i.v.): good inhibitory effect | IC50 (ug/ml) against tumor cell lines, A-549 [4]: 2.1 µg/mL | IC50 (ug/ml) against tumor cell lines, LLC [5]: 3.8 µg/mL | Inhibition rate (%) (mouse lung cancer Lewis; first experiment, 10 mg/kg): 29.5% | Tumor weight (mouse lung cancer Lewis; first experiment, 10 mg/kg): 2.10 ± 0.37 g | Inhibition rate (%) (mouse lung cancer Lewis; first experiment, 20 mg/kg): 42.6% | Tumor weight (mouse lung cancer Lewis; first experiment, 20 mg/kg): 1.71 ± 0.29 g | Inhibition rate (%) (mouse lung cancer Lewis; first experiment, 40 mg/kg): 51.7% | Tumor weight (mouse lung cancer Lewis; first experiment, 40 mg/kg): 1.44 ± 0.31 g | Inhibition rate (%) (mouse lung cancer Lewis; second experiment, 10 mg/kg): 25.3% | Tumor weight (mouse lung cancer Lewis; second experiment, 10 mg/kg): 1.80 ± 0.37 g | Inhibition rate (%) (mouse lung cancer Lewis; second experiment, 20 mg/kg): 44.4% | Tumor weight (mouse lung cancer Lewis; second experiment, 20 mg/kg): 1.34 ± 0.29 g | Inhibition rate (%) (mouse lung cancer Lewis; second experiment, 40 mg/kg): 50.6% | Tumor weight (mouse lung cancer Lewis; second experiment, 40 mg/kg): 1.19 ± 0.31 g | Inhibition rate (%) (mouse lung cancer Lewis; third experiment, 10 mg/kg): 33.3% | Tumor weight (mouse lung cancer Lewis; third experiment, 10 mg/kg): 1.80 ± 0.37 g | Inhibition rate (%) (mouse lung cancer Lewis; third experiment, 20 mg/kg): 47.4% | Tumor weight (mouse lung cancer Lewis; third experiment, 20 mg/kg): 1.42 ± 0.29 g | Inhibition rate (%) (mouse lung cancer Lewis; third experiment, 40 mg/kg): 52.6% | Tumor weight (mouse lung cancer Lewis; third experiment, 40 mg/kg): 1.28 ± 0.31 g | inhibitory effect against mouse lung cancer Lewis (mouse lung cancer Lewis; first of three concentrations (40 mg/kg)): 51.6% | inhibitory effect against mouse lung cancer Lewis (mouse lung cancer Lewis; second of three concentrations (20 mg/kg)): 44.8% | inhibitory effect against mouse lung cancer Lewis (mouse lung cancer Lewis; third of three concentrations (10 mg/kg)): 29.4% | IC50 (ug/ml) against tumor cell lines, SMMC-7721 [6]: 4.0 µg/mL
